Measured values from patent US10538497B2, “Compounds as indoleamine 2,3-dioxygenase inhibitors” (Merck Sharp & Dohme Corp., priority 2015, dated 2020).

How the values were obtained:
[1] = target: T1, IDO1 (Homo sapiens (Human), UniProt P14902); assay: IDO1 Cellular Assay in Frozen HEK293 Cells Transiently Transfected with Human IDO1; format: cell-based; settings: HEK293 cells transiently transfected with human IDO1; read-out: IDO1 HEK293 Cell Assay, IC50
[2] = target: T1, IDO1; assay: IDO1 Cellular Assay in Hela Cells Stimulated with IFNγ; format: cell-based; settings: Hela cells stimulated with IFNγ 100 ng/mL; read-out: IDO1 HELA Cell Assay, IC50
[3] = target: T1, IDO1; assay: IDO1 Enzyme Assay; settings: HIS-tagged recombinant IDO1, 40 nM
[4] = read-out: IDO1 Enzyme Assay, IC50

T1 sequence (P14902 whole entry): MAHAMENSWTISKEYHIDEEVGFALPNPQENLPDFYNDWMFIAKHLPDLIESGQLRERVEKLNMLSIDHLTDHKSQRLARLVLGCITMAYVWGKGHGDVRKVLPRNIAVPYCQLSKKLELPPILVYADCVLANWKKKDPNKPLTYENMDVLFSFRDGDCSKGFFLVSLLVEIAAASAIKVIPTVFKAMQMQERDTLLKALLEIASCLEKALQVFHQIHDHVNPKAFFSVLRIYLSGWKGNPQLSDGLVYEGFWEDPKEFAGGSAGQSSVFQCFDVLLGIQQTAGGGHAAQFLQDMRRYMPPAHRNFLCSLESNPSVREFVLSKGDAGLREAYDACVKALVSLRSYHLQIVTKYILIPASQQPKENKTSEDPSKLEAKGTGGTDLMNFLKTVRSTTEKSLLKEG

Compound | IC50 [1] [nM] | IC50 [2] [nM] | IC50 [3, 4] [nM] | IC50 ([3]; IDO1 Enzyme Assay, IC50, nM) [nM]
CN1C(=O)NC[C@H]1CSc1nonc1/C(=N/O)Nc1ccc(F)c(Br)c1 [Example 121, N-(3-bromo-4-fluorophenyl)-N′-hydroxy-4-({[(4S)-3-methyl-2-oxoimidazolidin-4-yl]methyl}sulfanyl)-1,2,5-oxadiazole-3-carboximidamide] | 45.8 | 39.7 | 47.7 | –
CN1C[C@@H](CSc2nonc2/C(=N/O)Nc2ccc(F)c(Br)c2)NC1=O [Example 122, N-(3-bromo-4-fluorophenyl)-N′-hydroxy-4-({[(4S)-1-methyl-2-oxoimidazolidin-4-yl]methyl}sulfanyl)-1,2,5-oxadiazole-3-carboximidamide] | 23.3 | 26.7 | 37.7 | –
CN1C[C@H](CSc2nonc2/C(=N/O)Nc2ccc(F)c(Br)c2)NC1=O [Example 123, N-(3-bromo-4-fluorophenyl)-N′-hydroxy-4-({[(4R)-1-methyl-2-oxoimidazolidin-4-yl]methyl}sulfanyl)-1,2,5-oxadiazole-3-carboximidamide] | 37.8 | 75.7 | 44.2 | –
O=C1NCC(CSc2nonc2/C(=N/O)Nc2ccc(F)c(Br)c2)O1 (stereo not drawn) [Example 124, N-(3-bromo-4-fluorophenyl)-N′-hydroxy-4-{[(2-oxo-1,3-oxazolidin-5-yl)methyl]sulfanyl}-1,2,5-oxadiazole-3-carboximidamide] | 65.6 | 56.2 | 34.5 | –
O/N=C(\Nc1ccc(F)c(Br)c1)c1nonc1SCCN1CCOCC1 [Example 126, N-(3-bromo-4-fluorophenyl)-N′-hydroxy-4-[(2-morpholin-4-ylethyl)sulfanyl]-1,2,5-oxadiazole-3-carboximidamide] | 52.9 | 92.6 | 57.5 | –
CCCCNC(=O)NCCSc1nonc1C(=NO)Nc1ccc(F)c(Br)c1 [Example 127, N-(3-bromo-4-fluorophenyl)-4-({2-[(bulylcarbamoyl)amino]ethyl}sulfanyl)-N′-hydroxy-1,2,5-oxadiazole-3-carboximidamide] | 115 | 219 | 33.5 | –
CCOC(=O)NC(=O)NCCSc1nonc1C(=NO)Nc1ccc(F)c(Br)c1 [Example 128, ethyl {[2-({4-[N-(3-bromo-4-fluorophenyl)-N′-hydroxycarbamimidoyl]-1,2,5-oxadiazol-3-yl}sulfanyl)ethyl]carbamoyl} carbamate] | 149 | 169 | 110 | –
O=C(NCCSc1nonc1C(=NO)Nc1ccc(F)c(Br)c1)NC1CCCC1 [Example 129, N-(3-bromo-4-fluorophenyI)-4-({2-[(cyclopentylcarbamoyl)amino]ethyl}sulfanyl)-N′-hydroxy-1,2,5-oxadiazole-3-carboximidamide] | 258 | 702 | 35.3 | –
O=C(NCCSc1nonc1C(=NO)Nc1ccc(F)c(Br)c1)NCC1CCOCC1 [Example 130, N-(3-bromo-4-fluorophenyl)-N′-hydroxy-4-[(2-{[(tetrahydro-2H-pyran-4-ylmethyl)carbamoyl]amino}ethyl)sulfanyl]-1,2,5-oxadiaxole-3-carboximidamide] | 206 | 371 | 37 | –
O=C(NCCSc1nonc1C(=NO)Nc1ccc(F)c(Br)c1)NCc1ccco1 [Example 131, N-(3-bromo-4-fluorophenyl)-4-[(2-{[(furan-2-ylmethyl)carbamoyl]amino}ethyl)sulfanyl]-N′-hydroxy-1,2,5-oxadiazole-3-carboximidamide] | 66.7 | 167 | – | 34.1
COCCNC(=O)NCCSc1nonc1C(=NO)Nc1ccc(F)c(Br)c1 [Example 132, N-(3-bromo-4-fluorophenyl)-N′-hydroxy-4-[(2-{[(2-methoxyethyl)carbamoyl]amino}ethyl)sulfanyl]-1,2,5-oxadiazole-3-carboximidamide] | 33.1 | 31.7 | – | 32.1
Cn1c(CSc2nonc2/C(=N/O)Nc2ccc(F)c(Cl)c2)n[nH]c1=O [Example 133, N-(3-chloro-4-fluorophenyl)-N′-hydroxy-4-{[(4-methyl-5-oxo-4,5-dihydro-1H-1,2,4-triazol-3-yl)methyl]sulfanyl}-1,2,5-oxadiazole-3-carboximidamide] | 226 | 235 | 71.5 | –
CC(O)CNC(=O)CSc1nonc1C(=NO)Nc1ccc(F)c(Br)c1 (stereo not drawn) [Example 138, 2-({4-[N-(3-bromo-4-fluorophenyl)-N′-hydroxycarbamimidoyl]-1,2,5-oxadiazol-3-yl}sulfanyl)-N-(2-hydroxypropyl)acetamide] | 60 | 54.7 | – | 38.7
O=c1[nH]nc(CCSc2nonc2/C(=N/O)Nc2ccc(F)c(Br)c2)o1 [Example 141, N-(3-bromo-4-fluorophenyl)-N′-hydroxy-4-{[2-(5-oxo-4,5-dihydro-1,3,4-oxadiazol-2-yl)ethyl]sulfanyl}-1,2,5-oxadiazole-3-carboximidamide] | 131 | 112 | 72.2 | –
CC(=O)NCCSc1nonc1/C(=N/O)Nc1ccc(F)c(C(F)F)c1 [Example 142, N-{2-[(4-{N-[3-(difluoromethyl)-4-fluorophenyl]-N′-hydroxycarbamimidoyl}-1,2,5-oxadiazol-3-yl)sulfanyl]ethyl}acetamide] | 46.9 | 57.2 | 54 | –
C[C@@H](O)[C@@H](CO)NC(=O)CSc1nonc1/C(=N/O)Nc1ccc(F)c(Br)c1 [Example 143, 2-({4-[N-(3-bromo-4-fluorophenyl)-N′-hydroxycarbamimidoyl]-1,2,5-oxadiazol-3-yl}sulfanyl)-N-[(1R,2R)-2-hydroxy-1-(hydroxymethyl)propyl]acetamide] | 65.1 | 34.8 | 53.9 | –
CN1C(=O)NC[C@@H]1CSc1nonc1/C(=N/O)Nc1ccc(F)c(C#N)c1 [Example 150, N-(3-cyano-4-fluorophenyl)-N′-hydroxy-4-({[(4R)-3-methyl-2-oxoimidazolidin-4-yl]methyl}sulfanyl)-1,2,5-oxadiazole-3-carboximidamide] | 422 | 820 | 173 | –
Cc1nccn1CCSc1nonc1C(=NO)Nc1ccc(F)c(Br)c1 [Example 151, N-(3-bromo-4-fluorophenyl)-N′-hydroxy-4-{[2-(2-methyl-1H-imidazol-1-yl)ethyl]sulfanyl}-1,2,5-oxadiazole-3-carboximidamide] | 79.3 | 156 | – | 96.3
ON=C(Nc1ccc(F)c(Br)c1)c1nonc1SCCc1cscn1 [Example 152, N-(3-bromo-4-fluorophenyl)-N′-hydroxy-4-{[2-(1,3-thiazol-4-yl)ethyl]sulfanyl}-1,2,5-oxadiazole-3-carboximidamide] | 166 | 331 | – | 97.6
Cn1ccnc1CSc1nonc1C(=NO)Nc1ccc(F)c(Br)c1 [Example 153, N-(3-bromo-4-fluorophenyl)-N′-hydroxy-4-{[(1-methyl-1H-imidazol-2-yl)methyl]sulfanyl}-1,2,5-oxadiazole-3-carboximidamide] | 65.7 | 69.4 | – | 85.4
ON=C(Nc1ccc(F)c(Br)c1)c1nonc1SCCn1cncn1 [Example 154, N-(3-bromo-4-fluorophenyl)-N′-hydroxy-4-{[2-(1H-1,2,4-triazol-1-yl)ethyl]sulfanyl}-1,2,5-oxadiazole-3-carboximidamide] | 26.1 | 41 | – | 31.4
Cc1nc(CSc2nonc2C(=NO)Nc2ccc(F)c(Br)c2)no1 [Example 155, N-(3-bromo-4-fluorophenyl)-N′-hydroxy-4-{[(5-methyl-1,2,4-oxadiazol-3-yl)methyl]sulfanyl}-1,2,5-oxadiazole-3-carboximidamide] | 218 | 301 | – | 77.7
ON=C(Nc1ccc(F)c(Br)c1)c1nonc1SCc1ncon1 [Example 156, N-(3-bromo-4-fluorophenyl)-N′-hydroxy-4-[(1,2,4-oxadiazol-3-ylmethyl)sulfanyl]-1,2,5-oxadiazole-3-carboximidamide] | 46.9 | 114 | – | 58.8
ON=C(Nc1ccc(F)c(Br)c1)c1nonc1SCc1nccs1 [Example 157, N-(3-bromo-4-fluorophenyl)-N′-hydroxy-4-[(1,3-thiazol-2-ylmethyl)sulfanyl]-1,2,5-oxadiazole-3-carboximidamide] | 104 | 113 | – | 63.8
ON=C(Nc1ccc(F)c(Br)c1)c1nonc1SCC1CCCNC1 (stereo not drawn) [Example 158, N-(3-bromo-4-fluorophenyl)-N′-hydroxy-4-[(piperidin-3-ylmethyl)sulfanyl]-1,2,5-oxadiazole-3-carboximidamide] | 72 | 233 | – | 95.7
ON=C(Nc1ccc(F)c(Br)c1)c1nonc1SCc1c[nH]cn1 [Example 159, N-(3-bromo-4-fluorophenyl)-N′-hydroxy-4-[(1H-imidazol-4-ylmethyl)sulfanyl]-1,2,5-oxadiazole-3-carboximidamide] | 81.7 | 153 | – | 105
ON=C(Nc1ccc(F)c(Br)c1)c1nonc1SCCF [Example 160, N-(3-bromo-4-fluorophenyl)-4-[(2-fluoroethyl)sulfanyl]-N′-hydroxy-1,2,5-oxadiazole-3-carboximidamide] | 61 | 126 | – | 65.7
CC#CCSc1nonc1C(=NO)Nc1ccc(F)c(Br)c1 [Example 161, N-(3-bromo-4-fluorophenyl)-4-(but-2-yn-1-ylsulfanyl)-N′-hydroxy-1,2,5-oxadiazole-3-carboximidamide] | 188 | 341 | – | 169
